Results reported in PMC9692523, “Exposure to (Poly)phenol Metabolites after a Fruit and Vegetable Supplement Intake: A Double-Blind, Cross-Over, Randomized Trial” (Nutrients, 2022).

What was measured:
[1] = Plasma pharmacokinetics of phenolic metabolites after one 450 mg capsule of the supplement (UHPLC-ESI-MS/MS); format: in vivo, human; conditions: for Cmax / Tmax / Tpres (time of presence of metabolites in circulation): n = 10, mean ± SEM; for Tpres (time of presence of metabolites in circulation): interval between first and last appearance; for AUC0-24: supplemented volunteers (n = 10), 450 mg capsule, mean ± SEM
Method: (§1) This study was designed as a 3-week randomized, double-blind, cross-over clinical trial. Eligible participants were randomized using simple block randomization of 1:1. Once enrolled, subjects received either one 450 mg capsule of the test supplement or one 450 mg capsule of placebo on the first day of the study (Phase I: D1). After three days of sampling, volunteers started a wash-out period of 1 week and were then enrolled for the second test Phase with ingestion of the opposite supplement (Phase II: D1) (Figure 1). The placebo product was 100% maltodextrin, which was (poly)phenol-free.
On the day of the test (D1), volunteers visited the Research Center after an overnight fast. Blood was collected at T0 to determine baseline levels of plasma phenolic metabolites. Then, volunteers were invited to take the 450 mg capsule of the supplement or the placebo with 250 mL of still water (Figure 2). Additional blood samples were then collected at 1 h (D1, T1), 2 h (D1, T2), 3 h (D1, T3), 4 h (D1, T4), 5 h (D1, T5), 6 h (D1, T6), 8 h (D1, T8), 10 h (D1, T10) and 24 h (D2, T24) after capsule intake. Blood was taken from the basilica vein and centrifuged at 3000 rpm for 10 min at 4 °C. Plasma was immediately extracted and frozen at −80 °C for further analysis.
Plasma samples were then extracted using a solid phase extraction (SPE) method, as previously reported by Castello and colleagues. Briefly, 350 µL of plasma samples was diluted (1:1) with phosphoric acid 4% (v/v). After plate activation, 600 µL of the diluted plasma samples was loaded on a 96 well µ-SPE HLB (Oasis® HLB µElution Plate 30 µm, Waters, Milford, Massachusetts, MA, USA). Samples were washed with 200 µL of water and 200 µL of 0.2% (v/v) acetic acid. Finally, samples were eluted with 60 µL of methanol for UHPLC-ESI-MS/MS analysis.
(§2) Plasma and urine samples were analyzed by a UHPLC DIONEX Ultimate 3000 equipped with a triple quadrupole TSQ Vantage (Thermo Fisher Scientific Inc) fitted with a heated ESI (H-ESI) (Thermo Fisher Scientific Inc) probe, as previously reported. Separations were carried out by means of a Kinetex EVO C18 (100 × 2.1 mm) column, 2.6 µm particle size (Phenomenex, Torrance, CA, USA), installed with a pre-column (Phenomenex). Mobile phase A was 0.2% formic acid in water, and mobile phase B was acetonitrile containing 0.2% formic acid. The gradient started with 5% B, and isocratic conditions were maintained for 0.5 min, reaching 95% B after 6.5 min, followed by 1 min at 95%. The starting gradient was then immediately re-established and maintained for 5 min to re-equilibrate the column. The flow rate was 0.4 mL/min, the injection volume was 5 µL and the column temperature was set at 40 °C.
(§3) The applied MS method consisted of the selective determination of each target precursor ion by the acquisition of characteristic product ion in selective reaction monitoring (SRM) mode (Supplemental Table S2). For all the analyses, the spray voltage was set at 3 kV, the vaporizer temperature at 300 °C and the capillary temperature operated at 270 °C. The sheath gas flow was 50 units, and auxiliary gas pressure was set to 10 units. Ultra-high purity argon gas was used for collision-induced dissociation (CID). The S-lens values were defined for each compound based on infusion parameter optimization. Conversely, for those compounds not available for infusion, the S-lens values were set using the values obtained for the chemically closest available standards. Quantification was performed with calibration curves of standards when available or using the most structurally similar compound. Data processing was performed using Xcalibur software (Thermo Scientific Inc., San Jose, CA, USA).
All data were expressed as mean values ± standard deviation (SD) and mean values ± standard error to the mean (SEM) for metabolites in blood and urine samples. […]

[2] = Urinary excretion of phenolic metabolites over 48 h after one 450 mg capsule of the supplement (UHPLC-ESI-MS/MS); format: in vivo, human; conditions: urine, n = 10, mean ± SEM; for Urinary excretion 0 (h): baseline (day before)
Method: as §1
Urine samples were collected the day before (baseline) and during the 48 h period following the supplementation (T0-T3, T3-T6, T6-T10, T10-T14, T14-T24, T24-T32 and T32-T48) (Figure 2). Urine volumes at each collection period were registered, and samples were aliquoted and stored at −80 °C until further processing.
Then, urine samples were prepared as previously reported by Brindani and colleagues. Briefly, urine samples were defrosted, vortexed, diluted in 0.1% formic acid in water (1:4, v/v) and centrifuged at 12,000 rpm for 5 min. Finally, urine samples were filtered (0.45 µm nylon filter) prior to UHPLC-ESI-MS/MS analysis.
as §2, §3
All data were expressed as mean values ± standard deviation (SD) and mean values ± standard error to the mean (SEM) for metabolites in blood and urine samples. PKSolver add-on program in Microsoft Excel was used to determine pharmacokinetic parameters of blood phenolic metabolites, including time to reach the maximum plasma concentration (Tmax, h), maximum plasma concentration (Cmax, nmol/L), area under the curve (AUC0-24, nmol/L·h), and time of presence of metabolites in circulation (Tpres, h). Tpres was calculated by taking the time interval between the first appearance and the last appearance of the considered metabolite. Coefficient of variation (CV) was evaluated for each metabolite and multivariate principal component analysis (PCA) was applied to explore the inter-individual variation in the urinary metabolites among the participants. […]

Cmax [1] [nM] | Tmax [1] [h] | Tpres (time of presence of metabolites in circulation) [1] [h] | AUC0-24 [1] [µM·h] | Urinary excretion 0 (h) [2] [µg] | Urinary excretion 0–3 (h) [2] [µg] | Urinary excretion 3–6 (h) [2] [µg] | Urinary excretion 6–10 (h) [2] [µg] | Urinary excretion 10–14 (h) [2] [µg] | Urinary excretion 14–24 (h) [2] [µg] | Urinary excretion 24–32 (h) [2] [µg] | Urinary excretion 32–48 (h) [2] [µg] | Urinary excretion Total (0–48 h) [2] | Time of first plasma concentration (absorption) peak ([1]; after supplement intake) [h] | Structure (SMILES)
15 ± 5.61 | 12.78 ± 2.85 | 14.44 ± 2.42 | 0.12555 ± 0.04768 | 5.34 ± 5.34 | 0.00 ± 0.00 | 101.70 ± 51.36 | 316.86 ± 132.04 | 199.53 ± 88.98 | 624.93 ± 108.36 | 281.58 ± 60.75 | 65.29 ± 25.62 | 1595.23 ± 260.71 µg |  | O=C1CCC(Cc2cc(O)cc(OC3OC(C(=O)O)C(O)C(O)C3O)c2)O1 (centres unmarked) [compound 10]
9.97 ± 4.31 | 8.88 ± 2.41 | 10.57 ± 2.72 | 0.03046 ± 0.01185 | 18.25 ± 10.84 | 4.64 ± 3.47 | 439.69 ± 219.42 | 1256.55 ± 516.93 | 944.18 ± 474.02 | 3986.28 ± 711.64 | 1721.60 ± 393.97 | 586.15 ± 240.93 | 8957.33 ± 1361.49 µg |  | O=C1CCC(Cc2cc(O)cc(OS(=O)(=O)O)c2)O1 (centres unmarked) [compound 16]
6.34 ± 1.66 | 5.88 ± 0.95 | 7.13 ± 2.27 | 0.022 ± 0.00641 | 15.01 ± 15.01 | 15.42 ± 15.42 | 196.48 ± 138.99 | 169.91 ± 105.95 | 65.96 ± 36.27 | 468.44 ± 330.34 | 81.71 ± 28.26 | 16.56 ± 16.56 | 1029.49 ± 394.77 µg |  | O=C1CCC(Cc2cccc(O[C@@H]3O[C@H](C(=O)O)[C@@H](O)[C@H](O)[C@H]3O)c2)O1 (some centres unmarked) [compound 17]
40 ± 16.9 | 7.00 ± 0.75 | 12.15 ± 1.84 | 0.1417 ± 0.05037 | 344.60 ± 186.50 | 166.29 ± 126.77 | 2548.76 ± 1207.06 | 2277.16 ± 795.52 | 919.49 ± 314.48 | 3618.13 ± 985.44 | 1346.37 ± 481.02 | 389.78 ± 215.48 | 11,610.60 ± 1923.81 µg |  | O=C1CCC(Cc2ccc(OS(=O)(=O)O)c(O)c2)O1 (centres unmarked) [compound 21]
2.15 ± 0.48 | 8.22 ± 2.13 | 9.33 ± 2.45 | 0.01011 ± 0.00389 | 41.07 ± 30.35 | 4.29 ± 2.19 | 52.98 ± 22.54 | 175.24 ± 98.80 | 76.01 ± 39.48 | 345.14 ± 198.47 | 100.92 ± 46.88 | 34.61 ± 16.03 | 830.26 ± 275.43 µg |  | O=C1CCC(Cc2cccc(OS(=O)(=O)O)c2)O1 (centres unmarked) [compound 23]
19.9 ± 2.31 | 7.11 ± 0.90 | 17.83 ± 1.54 | 0.15205 ± 0.02784 | 14.48 ± 5.94 | 4.02 ± 2.90 | 20.07 ± 4.27 | 28.56 ± 5.46 | 9.57 ± 2.19 | 30.72 ± 8.04 | 19.07 ± 5.57 | 22.33 ± 5.83 | 148.81 ± 14.88 µg |  | COc1ccc(C2CC(=O)c3c(O)cc(OC4OC(C(=O)O)C(O)C(O)C4O)cc3O2)cc1O (centres unmarked) [compound 28]
 |  |  |  | 1.13 ± 1.13 | 14.20 ± 4.88 | 24.68 ± 5.82 | 12.53 ± 4.10 | 3.10 ± 1.12 | 4.51 ± 1.34 |  |  | 60.16 ± 9.86 µg |  | O=C(O)c1ccc(O)c(OC2OC(C(=O)O)C(O)C(O)C2O)c1 (centres unmarked) [compound 35]
 |  |  |  | 0.71 ± 0.46 | 8.71 ± 8.71 | 3.89 ± 3.81 | 3.57 ± 2.82 | 1.42 ± 1.38 | 3.63 ± 2.95 | 3.33 ± 2.94 | 8.73 ± 8.35 | 33.92 ± 30.72 µg |  | COc1cc(C(=O)O)cc(OC)c1O.COc1cc(C(=O)O)cc(OC)c1O [compound 39]
 |  |  |  |  |  |  | 6.91 ± 6.55 | 5.49 ± 5.21 | 36.41 ± 34.54 | 14.38 ± 9.83 | 5.33 ± 5.05 | 68.53 ± 55.19 µg |  | O=C(O)[C@H]1O[C@@H](Oc2ccc3c(c2)oc(=O)c2ccc(O)cc23)[C@H](O)[C@@H](O)[C@@H]1O [compound 43]
 |  |  |  |  |  |  | 5.31 ± 5.04 | 39.56 ± 37.53 | 144.45 ± 90.90 | 74.85 ± 48.79 | 30.99 ± 29.40 | 295.17 ± 185.26 µg |  | O=C(O)[C@H]1O[C@@H](Oc2ccc3c(c2)oc(=O)c2ccccc23)[C@H](O)[C@@H](O)[C@@H]1O [compound 44]
43.6 ± 7.34 | 2.10 ± 0.46 | 13.45 ± 2.80 | 0.19606 ± 0.03272 |  |  |  |  |  |  |  |  |  | 1.38 ± 0.18 | O=C(O)c1ccc(O)c(OS(=O)(=O)O)c1 [compound 45]
169 ± 156 | 6.43 ± 2.97 | 7.14 ± 3.61 | 0.55828 ± 0.53121 |  |  |  |  |  |  |  |  |  |  | COc1cc(CCC(=O)O)ccc1OS(=O)(=O)O [compound 46]
816 ± 269 | 6.50 ± 1.28 | 21.55 ± 0.74 | 5.71944 ± 1.32787 |  |  |  |  |  |  |  |  |  |  | O=C(O)CNC(=O)c1ccc(O)cc1 [compound 47]
